The record followed here is PMC3588010, “Effect of Human Flavin-Containing Monooxygenase 3 Polymorphism on the Metabolism of Aurora Kinase Inhibitors” (International Journal of Molecular Sciences, 2013).

In one data set the target is T1, V257M hFMO3 (Homo sapiens, UniProt P31513, V257M).
T1 construct: made in house; host or cells: E. coli JM109 (vector pJL2)
T1 sequence (P31513 1-532 V257M): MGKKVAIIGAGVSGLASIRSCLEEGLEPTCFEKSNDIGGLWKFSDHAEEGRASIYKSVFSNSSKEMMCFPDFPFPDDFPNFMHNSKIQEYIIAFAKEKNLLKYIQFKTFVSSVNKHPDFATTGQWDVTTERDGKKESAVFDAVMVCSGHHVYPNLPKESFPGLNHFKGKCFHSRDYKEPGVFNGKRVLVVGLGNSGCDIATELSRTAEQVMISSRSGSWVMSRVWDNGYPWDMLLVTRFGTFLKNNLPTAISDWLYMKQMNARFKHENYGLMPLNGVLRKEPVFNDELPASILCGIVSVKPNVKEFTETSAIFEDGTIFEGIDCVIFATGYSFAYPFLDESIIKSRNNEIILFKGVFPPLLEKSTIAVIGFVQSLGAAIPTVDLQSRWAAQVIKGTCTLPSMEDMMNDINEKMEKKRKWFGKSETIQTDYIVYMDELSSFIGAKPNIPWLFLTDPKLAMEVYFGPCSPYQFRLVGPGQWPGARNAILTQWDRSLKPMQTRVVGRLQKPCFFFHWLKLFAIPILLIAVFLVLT
In words: N-oxygenation kinetics with purified V257M polymorphic variant of hFMO3 (LC-MS). Type of data set: in vitro ADME. How it is done:
(§1) Enzymatic reactions were carried out with the purified WT and V257M polymorphic variant in the presence of NADPH and increasing amounts of each substrate as reported in the experimental section. […] The kcat and Km values for V257M were approximately half of that of the wild-type (Figure 3A,B) and the kcat for the wild-type enzyme was at least twice as much of the kcat for V257M.
(§2) The enzyme and NADPH were mixed first and the reaction was initiated by the addition of substrate, preventing thermal degradation of the enzyme. […] The incubations were terminated by the addition of 0.10 mL of ice-cold methanol and 150 μL verapamil as internal standard (IS).
(§3) Prior to LC-MS analysis the reaction mixtures were filtered through a Microcon centrifugal membrane with 3 kDa cutoff (Millipore, Billercia, MA, USA). Substrates and their metabolites were separated using Agilent 1200 HPLC (Agilent Technologies Inc., Santa Clara, CA, USA) equipped with a narrow bore reversed-phase column Zorbax Eclipse XDB-C18, 2.1 × 150 mm, 3.5 μm (Agilent Technologies, Santa Clara, CA, USA) and using a binary solvent system composed of double distilled water with 0.01% formic acid (A), and acetonitrile (ACN) with 0.1% formic acid (B) at flow rate of 0.2 mL min^−1. The initial mobile phase was composed of 20% of solvent B and it was increased to 70% over a period of 3 min and kept 4 min for isocratic separations of substrate, metabolite and internal standard (IS). Finally, the organic solvent was increased to 100% in 30 s for washing the column. Before follower injection, initial mobile phase was re-established for 10 min.
(§4) For quantitative purpose, standards and samples were analysed by LC-ESI-MS/MS in MRM mode using the above-indicated parameters. […] Spectral data were processed using data analysis software of 6300 Series Ion Trap LC/MS 4.0 (Bruker Daltonik GmbH, Bremen, Germany). Metabolite formation was quantified by comparing peak area ratios (metabolite/internal standard) of four data sets of incubations for each Michaelis-Menten curve to ratios obtained from a standard curve containing known amounts of the […].

For a further data set, the target named is T2, wild type hFMO3 (Homo sapiens, UniProt P31513).
T2 construct: made in house; host or cells: E. coli JM109 (vector pJL2)
T2 sequence (P31513 1-532): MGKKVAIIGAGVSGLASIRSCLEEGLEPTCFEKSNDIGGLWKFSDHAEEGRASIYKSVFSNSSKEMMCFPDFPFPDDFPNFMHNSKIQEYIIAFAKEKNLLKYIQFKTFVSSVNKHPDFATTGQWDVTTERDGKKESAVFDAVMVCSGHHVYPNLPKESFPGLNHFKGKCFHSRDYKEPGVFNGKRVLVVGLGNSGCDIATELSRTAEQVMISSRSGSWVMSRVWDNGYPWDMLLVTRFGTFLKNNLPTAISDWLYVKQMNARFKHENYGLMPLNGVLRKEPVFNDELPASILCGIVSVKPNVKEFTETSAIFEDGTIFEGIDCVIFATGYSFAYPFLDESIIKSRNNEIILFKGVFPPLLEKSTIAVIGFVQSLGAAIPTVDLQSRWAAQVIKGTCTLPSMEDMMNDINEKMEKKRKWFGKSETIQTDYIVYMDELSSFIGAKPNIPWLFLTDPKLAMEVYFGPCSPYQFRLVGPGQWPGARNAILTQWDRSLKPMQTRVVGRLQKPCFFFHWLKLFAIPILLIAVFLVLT
In words: N-oxygenation kinetics with purified wild-type hFMO3 (LC-MS). It is filed as in vitro ADME. How it is done: as §1, §2, §3, §4

Substrate in data set [1]: CO[C@@H](C(=O)N1Cc2n[nH]c(NC(=O)c3ccc(N4CCN(C)CC4)cc3)c2C1)c1ccccc1
The description is as above. It is filed as in vitro ADME, human. The following applies: other: WT hFMO3, N-oxide formation, 0.17 μM enzyme, 0.5 mM NADPH, pH 7.4, 37 °C. How it is done: as §1, §2, §3, §4

Substrate in data set [2]: Cc1cc(Nc2cc(N3CCN(C)CC3)nc(Sc3ccc(NC(=O)C4CC4)cc3)n2)[nH]n1
The data set is described as above. It is filed as in vitro ADME, human. Particulars: other: WT hFMO3, N-oxide formation, 0.17 μM enzyme, 0.5 mM NADPH, pH 7.4, 37 °C. How it is done: as §1, §2, §3, §4

Substrate in data set [3]: CO[C@@H](C(=O)N1Cc2n[nH]c(NC(=O)c3ccc(N4CCN(C)CC4)cc3)c2C1)c1ccccc1
The experiment in a line: N-oxygenation kinetics with purified V257M polymorphic variant of hFMO3 (LC-MS). Particulars: other: V257M hFMO3, N-oxide formation, 0.17 μM enzyme, 0.5 mM NADPH, pH 7.4, 37 °C. It is filed as in vitro ADME, human. How it is done:
as §1, §2, §3, §4

Substrate in data set [4]: Cc1cc(Nc2cc(N3CCN(C)CC3)nc(Sc3ccc(NC(=O)C4CC4)cc3)n2)[nH]n1
The description is as above. Type of data set: in vitro ADME, human. The following applies: other: V257M hFMO3, N-oxide formation, 0.17 μM enzyme, 0.5 mM NADPH, pH 7.4, 37 °C. How it is done: as §1, §2, §3, §4

[5] abbreviates: V257M hFMO3, N-oxide formation, pH 7.4, 37 °C.
[6] abbreviates: V257M hFMO3, N-oxide formation, values in text.
The mark [7] stands for this setting: WT hFMO3, N-oxide formation, pH 7.4, 37 °C.

Usually kcat stands for the maximal rate divided by the concentration of active sites. What is called Km is the concentration of substrate that gives half-maximal velocity. Broadly, the kcat/Km is the turnover number divided by the Michaelis constant.

With `CO[C@@H](C(=O)N1Cc2n[nH]c(NC(=O)c3ccc(N4CCN(C)CC4)cc3)c2C1)c1ccccc1` [Danusertib], the Vmax on V257M hFMO3 (setting [5]) is listed as 0.18 ± 0.01 nmol/min/mg FMO3; at V257M hFMO3 (V257M, values in text) it was 0.18 nmol min^−1 mg FMO3; at wild type hFMO3 (setting [7]), 0.57 ± 0.03 nmol/min/mg FMO3; at wild type hFMO3 (wild-type enzyme, values in text), 0.57 nmol min^−1 mg FMO3. Besides, the kcat is 0.0533 s⁻¹ on V257M hFMO3 (setting [6]) and 0.165 s⁻¹ on wild type hFMO3 (setting [7]).

For `Cc1cc(Nc2cc(N3CCN(C)CC3)nc(Sc3ccc(NC(=O)C4CC4)cc3)n2)[nH]n1` [Tozasertib], the Vmax stood at 0.25 ± 0.01 nmol/min/mg FMO3 at V257M hFMO3 (setting [5]); 248 pmol/min/mg FMO3 on V257M hFMO3 (V257M hFMO3, values in text); 0.54 ± 0.02 nmol/min/mg FMO3 on wild type hFMO3 (setting [7]); 536 pmol/min/mg FMO3 at wild type hFMO3 (wild type hFMO3, values in text). Besides, the kcat amounted to 0.0717 s⁻¹ at V257M hFMO3 (setting [6]) and 0.155 s⁻¹ on wild type hFMO3 (setting [7]).

B1: wild type hFMO3 (Homo sapiens) (protein)
chain: MGKKVAIIGAGVSGLASIRSCLEEGLEPTCFEKSNDIGGLWKFSDHAEEGRASIYKSVFSNSSKEMMCFPDFPFPDDFPNFMHNSKIQEYIIAFAKEKNLLKYIQFKTFVSSVNKHPDFATTGQWDVTTERDGKKESAVFDAVMVCSGHHVYPNLPKESFPGLNHFKGKCFHSRDYKEPGVFNGKRVLVVGLGNSGCDIATELSRTAEQVMISSRSGSWVMSRVWDNGYPWDMLLVTRFGTFLKNNLPTAISDWLYVKQMNARFKHENYGLMPLNGVLRKEPVFNDELPASILCGIVSVKPNVKEFTETSAIFEDGTIFEGIDCVIFATGYSFAYPFLDESIIKSRNNEIILFKGVFPPLLEKSTIAVIGFVQSLGAAIPTVDLQSRWAAQVIKGTCTLPSMEDMMNDINEKMEKKRKWFGKSETIQTDYIVYMDELSSFIGAKPNIPWLFLTDPKLAMEVYFGPCSPYQFRLVGPGQWPGARNAILTQWDRSLKPMQTRVVGRLQKPCFFFHWLKLFAIPILLIAVFLVLT
notes: made in house; host or cells: E. coli JM109 (vector pJL2)
B1: in data set [1], the Km was 57.3 ± 8.3 µM, the kcat was determined as 0.165 ± 0.01 s⁻¹ and the kcat/Km amounted to 2830 ± 500 M⁻¹ s⁻¹. For the same molecule, in data set [2], the Km amounted to 23.8 ± 3.4 µM, the kcat turned out to be 0.155 ± 0.005 s⁻¹ and the kcat/Km came to 6500 ± 1000 M⁻¹ s⁻¹.

B2: V257M hFMO3 (Homo sapiens; V257M) (protein)
chain: MGKKVAIIGAGVSGLASIRSCLEEGLEPTCFEKSNDIGGLWKFSDHAEEGRASIYKSVFSNSSKEMMCFPDFPFPDDFPNFMHNSKIQEYIIAFAKEKNLLKYIQFKTFVSSVNKHPDFATTGQWDVTTERDGKKESAVFDAVMVCSGHHVYPNLPKESFPGLNHFKGKCFHSRDYKEPGVFNGKRVLVVGLGNSGCDIATELSRTAEQVMISSRSGSWVMSRVWDNGYPWDMLLVTRFGTFLKNNLPTAISDWLYMKQMNARFKHENYGLMPLNGVLRKEPVFNDELPASILCGIVSVKPNVKEFTETSAIFEDGTIFEGIDCVIFATGYSFAYPFLDESIIKSRNNEIILFKGVFPPLLEKSTIAVIGFVQSLGAAIPTVDLQSRWAAQVIKGTCTLPSMEDMMNDINEKMEKKRKWFGKSETIQTDYIVYMDELSSFIGAKPNIPWLFLTDPKLAMEVYFGPCSPYQFRLVGPGQWPGARNAILTQWDRSLKPMQTRVVGRLQKPCFFFHWLKLFAIPILLIAVFLVLT
notes: as for B1
As to B2, in data set [3], the Km was determined as 60.1 ± 11.4 µM, the kcat worked out at 0.0533 s⁻¹ and the kcat/Km turned out to be 833 ± 167 M⁻¹ s⁻¹. For the same molecule, in data set [4], the Km turned out to be 12.9 ± 1.3 µM, the kcat came to 0.0717 s⁻¹ and the kcat/Km is 5500 ± 667 M⁻¹ s⁻¹.
